Tested on: Lgr5+ cells (cochlear stem cells)
Experiment: Lgr5+ assay: expansion of Lgr5-positive cochlear cells in 3D culture
Assay type: cell-based, mouse
Conditions: 10 days culture with EGF, bFGF, IGF1, approximate values
Source text: “Stem Cell Proliferation Assay” as used herein is an assay to determine the capacity for agent(s) to induce the creation of stem cells from a starting cell population. In an exemplary Stem Cell Proliferation Assay, the number of cells for an initial cell population is harvested from a Lgr5-GFP mouse such as a B6.129P2-Lgr5tm1(cre/ERT2)Cle/J mouse (also known as Lgr5-EGFP-IRES-creERT2 or Lgr5-GFP mouse, Jackson Lab Stock No: 008875) between the age of 3 to 7 days, by isolating the organ of Corti sensory epithelium and dissociating the epithelium into single cells. Approximately 5000 cells are entrapped in 40 μl of culture substrate (for example, Matrigel (Corning, Growth Factor Reduced)) and placed at the center of wells in a 24-well plate with 500 μl of an appropriate culture media, growth factors and agent being tested. Appropriate culture media and growth factors include Advanced DMEM/F12 with media supplements (1×N2, 1×B27, 2 mM Glutamax, 10 mM HEPES, 1 mM N-acetylcysteine, and 100 U/ml penicillin/100 μg/ml streptomycin) and growth factors (50 ng/ml EGF, 50 ng/ml bFGF, and 50 ng/ml IGF-1) as well as the agent(s) being assessed are added into each well. Cells are cultured for 10 days in a standard cell culture incubator at 37° C. and 5% CO2, with media change every 2 days. The number of Lgr5^+ cells is quantified by counting the number of cells identified as Lgr5+ in an in vitro Lgr5 activity assay (i.e., an assay mearing in vitro Lgr5 activity). The fraction of cells that are Lgr5^+ is quantified by dividing the number of cells identified as Lgr5^+ in a cell population by the total number of cells present in the cell population. The average Lgr5^+ activity of a population is quantified by measuring the average mRNA expression level of Lgr5 of the population normalized using suitable and unregulated references or housekeeping genes (e.g., Hprt). The number of hair cells in a population may be measured by staining with hair cell marker (e.g., MyosinVIIa), or using an endogenous reporter of hair cell genes (e.g., Pou4f3-GFP, Atoh1-nGFP) and analyzing using flow cytometry. The fraction of cells that are hair cells is quantified by dividing the number of cells identified as hair cells in a cell population by the total number of cells present in the cell population. Lgr5 activity can be measured by qPCR.
The compounds of the present disclosure were used in Lgr5-EGFP-IRES-Cre-ER mice (Barker et al., 2007) to analyze the effects of small molecules on cochlear stem cell expansion.
Isolation of stem cells from the inner ear: All animal studies were conducted under an approved institutional protocol according to National Institutes of Health guidelines. For experiments with neonatal mice (postnatal days 1-3), the cochleae were dissected in Hank's Balanced Salt Solution (HBSS) and the organs of Corti were separated from the stria vascularis and the modiolus. The organs of Corti were then treated with Cell Recovery Solution (Corning) for 1 hour to separate cochlear epithelium from the underlying mesenchyme. Epithelia were then collected and treated with TrypLE (Life Technologies) for 15-20 minutes at 37° C. Single cells obtained by mechanical trituration were filtered (40 μm) and suspended in Matrigel® (Corning) for 3D culture.
Cells were cultured in a 1:1 mixture of DMEM and F12, supplemented with Glutamax (GIBCO), N2, B27 (Invitrogen), EGF (50 ng/ml; Chemicon), bFGF (50 ng/ml; Chemicon), IGF1 (50 ng/ml; Chemicon) and the composition provided herein. Medium was changed every other day.
Lgr5-positive cells were quantified after 10 days (D10) in culture in multiple conditions. Cell colonies were dissociated into single cells using TrypLE (Gibco). The cells were then stained with propidium iodide (P1) and were analyzed using a flow cytometer for Lgr5-GFP expression. The number of GFP-positive cells and the percentage of GFP-positive cells were quantified. […]

## CCn1cc(C(=O)O)c(=O)c2c(N)c(F)c(NC3CN(c4ccccc4)C3)cc21 [Compound I-69]
  % of Lgr5+ Positive Cells: 25%
Effective concentration for Lgr5+ expansion
  Potency (Lgr5+ activity): 1100 nM

From patent publication US20230058189A1, “QUINOLIN-4-ONE AND 4(1H)-CINNOLINONE COMPOUNDS AND METHODS OF USING SAME” (Frequency Therapeutics, Inc., priority 2019, published 2023)
